Laboratory results reported in article PMC9537510, “Reduction of stress responses in honey bees by synthetic ligands targeting an allatostatin receptor” (Scientific Reports, 2022).
pIC50: −log10 of the molar value.

Tests used:
Assay type in all cases: cell-based
[1] = biological target: T1, allatostatin A receptor (ASTA-R) (Apis mellifera, UniProt A0A7M7ILT1); assay: reversal of ASTA inhibition of forskolin-induced cAMP in ASTA-R-expressing cells; also weak competition binding (IC50 > […])
T1 construct: gene LOC413582; receptor expressed in transfected HEK293T cells (NCBI: XP_006560262.1 used for the model)
T1 sequence (A0A7M7ILT1 1-361): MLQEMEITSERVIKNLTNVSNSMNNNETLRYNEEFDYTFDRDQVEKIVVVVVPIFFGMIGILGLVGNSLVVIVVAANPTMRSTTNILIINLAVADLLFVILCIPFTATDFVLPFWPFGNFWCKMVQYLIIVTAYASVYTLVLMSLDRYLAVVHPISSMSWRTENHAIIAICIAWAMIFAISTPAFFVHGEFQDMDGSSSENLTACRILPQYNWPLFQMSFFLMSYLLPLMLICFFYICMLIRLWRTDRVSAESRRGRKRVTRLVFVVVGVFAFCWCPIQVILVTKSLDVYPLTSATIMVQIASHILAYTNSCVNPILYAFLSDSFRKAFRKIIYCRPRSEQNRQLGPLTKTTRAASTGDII

[2] = biological target: T1, allatostatin A receptor (ASTA-R); assay: competition binding with fluorescence-labeled ASTA on ASTA-R-transfected HEK cells
[3] = biological target: T1, allatostatin A receptor (ASTA-R); assay: competition binding with fluorescence-labeled ASTA on ASTA-R-transfected HEK cells; also cAMP antagonism

For `Cc1ccc(-n2cncn2)c(NC(=O)CSCCCc2ccccc2)c1` [B6, N-(5-methyl-2-(1H-1,2,4-triazol-1-yl)phenyl)-2-(phenypropylthio)acetamide], the “reversal of ASTA inhibition of forskolin-induced cAMP in ASTA-R-expressing cells” value [1] was “both B5 and B6 act as ASTA antagonists by interacting with ASTA-R”.

`O=C(CSCCCc1ccccc1)Nc1cc(C(F)(F)F)ccc1-n1cncn1` [B3, N-(2-(1H-1,2,4-triazol-1-yl)-5-(trifluoromethyl)phenyl)-2-((3-phenylpropyl)thio)acetamide] showed a pIC50 [2] of less than 5.00.

With `Cc1ccc(-n2cncn2)c(NC(=O)CSCCc2ccccc2)c1` [B5, N-(5-methyl-2-(1H-1,2,4-triazol-1-yl)phenyl)-2-(phenethylthio)acetamide] the pIC50 [3] was less than 5.00.
